Several values for one entry are separate records, joined by “and”; a condition that tells them apart may be missing. Identical values can stand only once. Like-named read-outs stand apart in the source and are kept apart here.
Columns and labels:
UCP1 [1] = target: T1, UCP1 (Homo sapiens, UniProt P25874); test: Differential scanning fluorimetry (nanoDSF) thermal stability shift assay; format: binding; conditions: for ΔTm at 1000 µM: read-out: thermal shift (ΔTm)
T1 construct: His8 (N, cleaved yes); Factor Xa protease cleavage site (N, cleaved yes); made in house; host or cells: Saccharomyces cerevisiae strain W303.1B
T1 sequence (P25874 1-307): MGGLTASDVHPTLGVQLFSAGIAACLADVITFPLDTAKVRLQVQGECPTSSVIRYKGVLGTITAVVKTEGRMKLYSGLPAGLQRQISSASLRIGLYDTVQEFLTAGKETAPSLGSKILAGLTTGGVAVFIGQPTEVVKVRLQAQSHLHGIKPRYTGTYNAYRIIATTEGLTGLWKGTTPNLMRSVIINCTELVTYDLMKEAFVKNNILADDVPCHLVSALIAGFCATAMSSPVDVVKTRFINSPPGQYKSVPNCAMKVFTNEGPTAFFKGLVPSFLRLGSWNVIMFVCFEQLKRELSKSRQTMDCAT

UCP1 [2] = target: T1, UCP1; test: Isothermal titration calorimetry of nucleotide binding; parameters: isotherm data point (enthalpy change per injection): unit not given here; conditions: for isotherm data point (enthalpy change per injection): representative isotherm;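 as to all read-outs here: purified human UCP1 in cacodylate buffer with lauryl maltose neopentyl glycol and cardiolipin, titrated with nucleotides, isotherms fitted by one-site model yielding ΔH, Kd and stoichiometry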
[3] = target: T2, human uncoupling protein 1 (human, UniProt P25874); test: cryo-EM structure; UCP1, PMb65 and PMb71 mixed stoichiometrically, overnight at 4 °C; complex separated by SEC (20 mM MES pH 6.0, 150 mM NaCl, 0.02% lauryl maltose neopentyl glycol, 0.02 mg/mL tetraoleoyl cardiolipin, 1 mM TCEP); 2 mM UTP and 2 mM D-maltose added; 3.03 Å; conditions: both partners purified
T2 construct: human uncoupling protein 1 (UCP1, SLC25A7), Uniprot P25874; Detergent-solubilised, with tetraoleoyl cardiolipin; also called UCP1; SLC25A7; source: Saccharomyces cerevisiae W303.1B, purified from mitochondria (Ni Sepharose, on-column Factor Xa cleavage); not shown: His8, N-terminal, cleaved

[4] = ITC, pH 6.0, 20 °C, mean ± standard deviation of three biological repeats (Fig. 2A-E)
[5] = ITC, single biological repeats (source data Fig. 2F)

Molecule: Nc1nc2c(ncn2[C@@H]2O[C@H](COP(=O)(O)OP(=O)(O)OP(=O)(O)O)[C@@H](O)[C@H]2O)c(=O)[nH]1 [GTP, guanosine triphosphate]
- temperature shift (ΔTm) (UCP1 [1]; 1 mM nucleotide, pH 6.0, detergent-solubilised UCP1, mean of three biological repeats): 16.2 °C
- ΔTm at 1000 µM (UCP1 [1]; pH 6, 1 mM nucleotide, pH 6.0, single repeats (source data Fig. 1D)): 16 °C
- ΔTm at 1000 µM (UCP1 [1]; pH 6.5, 1 mM nucleotide, pH 6.5, single repeats (source data Fig. 1D)): 12 °C
- ΔTm at 1000 µM (UCP1 [1]; pH 7, 1 mM nucleotide, pH 7.0, single repeats (source data Fig. 1D)): 7.8 °C
- ΔTm at 1000 µM (UCP1 [1]; pH 7.5, 1 mM nucleotide, pH 7.5, single repeats (source data Fig. 1D)): 3.6 °C
- binding affinity to UCP1 (in words) (UCP1 [2]; ITC): intermediary affinities
- Kd (UCP1 [2]; [4]): 3.77 ± 0.12 µM
- Kd (UCP1 [2]; [5]): 3.68 µM and 3.9 µM and 3.73 µM
- isotherm data point (enthalpy change per injection) (UCP1 [2]; Molar ratio (Nucleotide/UCP) 0.120417, pH 6.0, 20 °C): -20.3045
- isotherm data point (enthalpy change per injection) (UCP1 [2]; Molar ratio (Nucleotide/UCP) 0.181226, pH 6.0, 20 °C): -19.4276
- isotherm data point (enthalpy change per injection) (UCP1 [2]; Molar ratio (Nucleotide/UCP) 0.242439, pH 6.0, 20 °C): -18.5029
- isotherm data point (enthalpy change per injection) (UCP1 [2]; Molar ratio (Nucleotide/UCP) 0.304059, pH 6.0, 20 °C): -18.707
- isotherm data point (enthalpy change per injection) (UCP1 [2]; Molar ratio (Nucleotide/UCP) 0.366087, pH 6.0, 20 °C): -18.3445
- isotherm data point (enthalpy change per injection) (UCP1 [2]; Molar ratio (Nucleotide/UCP) 0.428528, pH 6.0, 20 °C): -17.3071
- isotherm data point (enthalpy change per injection) (UCP1 [2]; Molar ratio (Nucleotide/UCP) 0.491383, pH 6.0, 20 °C): -16.412
- isotherm data point (enthalpy change per injection) (UCP1 [2]; Molar ratio (Nucleotide/UCP) 0.554656, pH 6.0, 20 °C): -17.0687
- isotherm data point (enthalpy change per injection) (UCP1 [2]; Molar ratio (Nucleotide/UCP) 0.618348, pH 6.0, 20 °C): -15.1625
- isotherm data point (enthalpy change per injection) (UCP1 [2]; Molar ratio (Nucleotide/UCP) 0.682464, pH 6.0, 20 °C): -14.4377
- isotherm data point (enthalpy change per injection) (UCP1 [2]; Molar ratio (Nucleotide/UCP) 0.747006, pH 6.0, 20 °C): -12.3158
- isotherm data point (enthalpy change per injection) (UCP1 [2]; Molar ratio (Nucleotide/UCP) 0.811976, pH 6.0, 20 °C): -11.9274
- isotherm data point (enthalpy change per injection) (UCP1 [2]; Molar ratio (Nucleotide/UCP) 0.877378, pH 6.0, 20 °C): -11.0392
- isotherm data point (enthalpy change per injection) (UCP1 [2]; Molar ratio (Nucleotide/UCP) 0.943214, pH 6.0, 20 °C): -8.777
- isotherm data point (enthalpy change per injection) (UCP1 [2]; Molar ratio (Nucleotide/UCP) 1.00949, pH 6.0, 20 °C): -7.389
- isotherm data point (enthalpy change per injection) (UCP1 [2]; Molar ratio (Nucleotide/UCP) 1.0762, pH 6.0, 20 °C): -6.878
- isotherm data point (enthalpy change per injection) (UCP1 [2]; Molar ratio (Nucleotide/UCP) 1.14336, pH 6.0, 20 °C): -5.2039
- isotherm data point (enthalpy change per injection) (UCP1 [2]; Molar ratio (Nucleotide/UCP) 1.21096, pH 6.0, 20 °C): -4.2804
- isotherm data point (enthalpy change per injection) (UCP1 [2]; Molar ratio (Nucleotide/UCP) 1.27901, pH 6.0, 20 °C): -2.298
- isotherm data point (enthalpy change per injection) (UCP1 [2]; Molar ratio (Nucleotide/UCP) 1.34751, pH 6.0, 20 °C): -2.606
- isotherm data point (enthalpy change per injection) (UCP1 [2]; Molar ratio (Nucleotide/UCP) 1.41647, pH 6.0, 20 °C): -2.5907
- isotherm data point (enthalpy change per injection) (UCP1 [2]; Molar ratio (Nucleotide/UCP) 1.48589, pH 6.0, 20 °C): -0.9936
- isotherm data point (enthalpy change per injection) (UCP1 [2]; Molar ratio (Nucleotide/UCP) 1.55577, pH 6.0, 20 °C): -1.473
- isotherm data point (enthalpy change per injection) (UCP1 [2]; Molar ratio (Nucleotide/UCP) 1.62611, pH 6.0, 20 °C): -0.9907
- isotherm data point (enthalpy change per injection) (UCP1 [2]; Molar ratio (Nucleotide/UCP) 1.69692, pH 6.0, 20 °C): -0.3592
- isotherm data point (enthalpy change per injection) (UCP1 [2]; Molar ratio (Nucleotide/UCP) 1.76819, pH 6.0, 20 °C): -0.2978
- isotherm data point (enthalpy change per injection) (UCP1 [2]; Molar ratio (Nucleotide/UCP) 1.83995, pH 6.0, 20 °C): 0.5154
- isotherm data point (enthalpy change per injection) (UCP1 [2]; Molar ratio (Nucleotide/UCP) 1.91217, pH 6.0, 20 °C): 0.06373
- isotherm data point (enthalpy change per injection) (UCP1 [2]; Molar ratio (Nucleotide/UCP) 1.98488, pH 6.0, 20 °C): 0.2135

Molecule: O=c1ccn([C@@H]2O[C@H](COP(=O)(O)OP(=O)(O)OP(=O)(O)O)[C@@H](O)[C@H]2O)c(=O)[nH]1 [UTP, uridine triphosphate]
- Kd (UCP1 [2]; [4]): 2.86 ± 0.49 µM
- Kd (UCP1 [2]; [5]): 3.37 µM and 2.82 µM and 2.4 µM

B1: Pro-macrobody PMb65 (VHH)
VHH: QVQLVESGGGLVQAGGSLRLSCAPSGRTSSTYTMGWFRQAPGKEREFVAAISWTGTPYYADSVKGRFTISRDNAKNTVYLQMNSLKPEDTAVYYCAAARPGLFIFVSDYARTAKYDYWGQGTQVTVPP
notes: llama nanobody CA9865; Expressed from the vector pBXNPHM3 (Addgene 110099); also called CA9865; source: E. coli MC1061, purified (Ni-NTA, 3C cleavage, Strep-Tactin XT); not shown: His-tagged MBP, N-terminal, cleaved
- binding result [3]: binds
